Assay results reported in PMC11462456 (Chemical Science, 2024).

How the values were obtained:
[1] = target: T1, CRBN (Homo sapiens, UniProt Q96SW2); test: E3 ligase homo-degradation by western blot, CRBN; type: cell-based; details: HEK293 cells, 4 h, 0.1, 1 and 10 μM
T1 construct: western blot analysis of the levels of CRBN and VHL E3 ligase in cell lysate; endogenous in cells; host or cells: HEK293 (ATCC)
Excerpt: (§1) 4. Biological experiments
(§2) Primary antibodies used for western blotting included anti-human BRD2(1:2000, rabbit monoclonal, Abcam, ab139690), anti-human BRD3 (1:1000, rabbit monoclonal, Abcam, ab264420), anti-human BRD4 (E2A7X) (1:1000, rabbit monoclonal, Cell Signaling Technology, #13440), anti-human VHL (1:1000, rabbit polyclonal, Cell Signaling Technology, #68547), anti-human CRBN (D8H3S) (1:1000, rabbit polyclonal, Cell Signaling Technology, #71810), anti-human alpha Tubulin, clone B-5-1-2 (1:5000, mouse monoclonal, Merck Life Science, # 32-2500).Secondary antibodies used for western blot included: anti-mouse horseradish peroxidase-linked antibody (1:3000, sheep, GE Healthcare Life Sciences, #NA931V), and anti-rabbit horseradish peroxidase-linked antibody (1:8000, donkey, GE Healthcare Life Sciences, #NA934V). Reagent for degradation assay and compounds […]
dr. Serge Van Calenbergh, Ghent University).
4.2 Cell lines and culture
HEK293, A549, SKOV-3, HCT116 cells (ATCC)were grown in DMEM (Gibco),and all cells were supplemented with 10% (v/v) fetal bovine serum (FBS) (Sigma), […] penicillin/streptomycin solution (Thermo Fisher Scientific) and maintained at 37 °C and 5% CO2 in a humidified atmosphere. All cells used were tested monthly using the Mycoalert Mycoplasma Detection Kit (cat. no. LT07-318, Lonza) to exclude mycoplasma contamination.
4.3 Degradation assays by Western blot
General method of Western blot: Lysates were sonicated and centrifuged at 4 °C at 20000 g for 15 min, and the supernatants were transferred to new tubes. Protein concentration of cell lysates was measured using the DC Protein Assay kit (BIO-RAD) following manufacturer's instructions. Cell lysates were mixed with reducing sample buffer (0.5 M Tris-HCl (pH 6.8), 43% glycerol, 9.2% SDS, 5% 2-mercaptoethanol, 5% bromophenol blue) and boiled for 5 min at 95°C. […]
(§3) Figure S5 Homo-degradation effect in Dual-ligand PROTACs. […] Subsequently, cell lysates were prepared and the protein levels of CRBN or VHL E3 ligase were assessed by Western blotting. […]

[2] = target: T2, VHL (Homo sapiens, UniProt P40337); test: E3 ligase homo-degradation by western blot, VHL; type: cell-based; details: HEK293 cells, 4 h, 1 μM and 10 μM
T2 construct: western blot analysis of the levels of CRBN and VHL E3 ligase in cell lysate; endogenous in cells; host or cells: HEK293 (ATCC)
T2 sequence (P40337 whole entry): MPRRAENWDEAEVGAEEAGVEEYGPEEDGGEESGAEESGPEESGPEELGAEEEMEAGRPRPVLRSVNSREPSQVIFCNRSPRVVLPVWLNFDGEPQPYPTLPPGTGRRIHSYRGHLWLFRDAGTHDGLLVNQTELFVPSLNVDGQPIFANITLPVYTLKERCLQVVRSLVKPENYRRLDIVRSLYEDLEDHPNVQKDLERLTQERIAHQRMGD
Excerpt: as §1, §2
dr. Serge Van Calenbergh, Ghent University). […]
General method of Western blot: Lysates were sonicated and centrifuged at 4 °C at 20000 g for 15 min, and the supernatants were transferred to new tubes. Protein concentration of cell lysates was measured using the DC Protein Assay kit (BIO-RAD) following manufacturer's instructions. […]
as §3

[3] = target: T3, BRD4 (Homo sapiens, UniProt O60885); test: Western blot degradation of BRD4 in HEK293 cells; type: cell-based; details: HEK293 cells, 4 h, 0.1 μM to 1 nM, Fig. S2
T3 construct: BRD2, BRD3 and BRD4 protein levels were measured by western blot; endogenous in cells; host or cells: HEK293 (ATCC)
Experimental: HEK293, A549, SKOV-3, HCT116 cells (ATCC)were grown in DMEM (Gibco),and all cells were supplemented with 10% (v/v) fetal bovine serum (FBS) (Sigma), 100 mg/mL penicillin/streptomycin solution (Thermo Fisher Scientific) and maintained at 37 °C and 5% CO2 in a humidified atmosphere. All cells used were tested monthly using the Mycoalert
at 95°C. Proteins were separated by SDS–PAGE (SDS polyacrylamide gel electrophoresis) with 25–40 µg of total protein per well, transferred to 0.2-μm-pore nitrocellulose membranes (BIO-RAD), then blocked in 5%(w/v) milk in PBS and 0.5% Tween-20, and incubated overnight at 4°C with primary antibodies described in section 4.1. Secondary antibodies were added for 1h at room temperature after 3 times washing with blocking buffer. After 6 times of washing
with PBS (Thermo Fisher Scientific) and 0.5% Tween-20, Blots were detected using the Clarity Western ECL Substrate (BIO-RAD) and visualized on iBright CL 750 (Thermo Fisher Scientific) and images were analyzed using iBright Firmware 1.7.0.
4.3.1 Evaluation of the degradation capacity of PROTACs […]

[4] = system: HEK293, A549, HCT116 and SKOV-3; test: CellTiter-Glo metabolic activity, cell line panel; type: cell-based; details: 48 h
Experimental: (§4) 4.4 Cell viability assay on 2D cells cultures
(§5) HEK293, HCT116, A549,andSKOV-3 cells were seeded in 96-well tissue culture plates at a density of 2000-3000 cells per well in 100 µl of growth medium and incubated overnight at 37 °C with 5% CO2. The following day, the cells were treated with various concentrations of compounds or 0.05% DMSO for 48 h. After treatment, add 100 μl of Cell Titer-Glo® 2.0 Reagent (cat. no. G9243, Promega) in each well, then the 96-well plates were put on an orbital shaker for 10 min and then allow the plate to incubate at room temperature for 10-20min to stabilize the luminescent signal. Luminescence readout (Gen5 Data Analysis Software v3.08.01) was performed to record luminescence.
(§6) (1 picture or pasted object on this page, not shown here)

[5] = system: A549 cells; test: CellTiter-Glo 2D metabolic activity assay, A549; type: cell-based; details: Homo sapiens, 2D culture, 48 h
Experimental: as §4, §5, §6

[6] = system: A549 spheroids; test: CellTiter-Glo 3D assay on spheroids; type: cell-based; details: Homo sapiens, 72 h, read-out: EC50, spheroid metabolic activity
Experimental: 4.5 Cell viability assay on 3D cell cultures
The single cell suspension containing 2.5 ×10^4 cells/ml of A549 or 2 ×10^4 cells/ml of HCT116 were seeded into the U-shaped, 384-well ULA plates (cat. no. MS-9384UZ, S-bio), each well containing 80 μl single cell suspension. The 384-well ULA plates were sealed with Breath-Easy semipermeable tape (cat. no. BEM-1, Diversified Biotech) to prevent evaporation. The spheroids were put into incubator and then cultured at 37 °C and 10% CO2. After 48h of spheroids formation, the spheroids were treated with various concentrations of compounds or 0.05% DMSO. After 72h treatment, each spheroid in the culture medium was pipetted into white micro-96-well plates (cat. no. 236108, ThermoFisher) and an equal volume of Cell Titer-Glo 3D (cat. no. G9683, Promega) reagent was added. Luminescence readouts were the same as described above for 2D culture.

[7] = system: HCT116 cells; test: CellTiter-Glo 2D metabolic activity assay, HCT116; type: cell-based; details: Homo sapiens, HCT-116, 2D culture, 48 h
Experimental: as §4, §5, §6

[8] = Parallel artificial membrane permeability assay (PAMPA); type: in vitro ADME; details: 10 uM, pH 7.4, four hours
Experimental: 4.9 Study of membrane permeability of single-ligand and dual-ligand PROTACs Parallel artificial membrane permeability assay (PAMPA) is a non-cell based assay designed to predict passive, transcellular permeability of a test compound through a PVDF membrane filter pretreated with lipid. At a given pH a log Pe (log of effective permeability) can be determined by a UV spectrophotometer. […]
is carried out in the company of Eurofins Panlabs, 6 Research Park Dr. St. Charles, MO 63304, U.S.A. The results are attached as an excel file.
Sample preparation The test compound is prepared from a 10 mM DMSO stock solution and diluted to a single final concentration of 10 uM in donor buffer. The donor solution is placed in contact with the acceptor buffer at a single pH = 7.4 with the membrane in between and the sandwich is incubated for four hours at ambient temperature.
Reference compounds Ketoprofen, propranolol and furosemide. The reference compounds yield log Pe (10-6 cm/s) values that cover the typical range of the assay from high (Propranolol), mid (Ketoprofen) to low (Furosemide) permeability.
Analytical method UV/Vis spectrophotometer
The UV absorption is measured from 250 to 500 nm for both donor and acceptor plate.
Adjustments to the method may be made as necessary to improve detection or UV spectrum.
Data analysis The amount of compound UV absorbance is determined in the donor plate prior to starting the experiment for each compound. The UV absorbance was measured from the (1 picture or pasted object on this page, not shown here) […]
donor and acceptor plate after a four hour incubation time. The log Pe was calculated using […]
4.10 Statistical Analysis.
Data analyses were performed using GraphPad Prism 9 software. The results are presented as the mean ± standard deviation (SD) or standard error of mean (SEM). All statistical analyses were evaluated with one-way analysis of variance (ANOVAs), or unpaired Student’s t-test. The difference was considered statistically significant when P < 0.05.

[9] = system: HEK293 cells; test: CellTiter-Glo 2D metabolic activity assay, HEK293; type: cell-based; details: Homo sapiens, 2D culture, 48 h
Experimental: Figure S5 Homo-degradation effect in Dual-ligand PROTACs. HEK293 cells were treated with all synthesized PROTACs or 2V-alkyne/2P-alkyne for 4 hours. Subsequently, cell lysates were prepared and the protein levels of CRBN or VHL E3 ligase were assessed by Western blotting. (A) Representative image of CRBN or VHL E3 ligase homo-degradation was screened for all PROTACs and commercial single-ligand PROTACs at a concentration of 0.1, 1 and 10 µM, respectively (equivalent volume of DMSO as control group). (B) Representative image of CRBN or VHL E3 ligase homo-degradation was screened for 2P-alkyne or 2V-alkyne at a concentration of 0.1, 1 and 10 µM, respectively (equivalent volume of DMSO as control group). Experiments were performed as three independent replicates.
as §4
HEK293, HCT116, A549,andSKOV-3 cells were seeded in 96-well tissue culture plates at a density of 2000-3000 cells per well in 100 µl of growth medium and incubated overnight at 37 °C with 5% CO2. The following day, the cells were treated with various concentrations of compounds or 0.05% DMSO for 48 h. […] Luminescence readout (Gen5 Data Analysis Software v3.08.01) was performed to record luminescence. […]

T1 sequence (Q96SW2 whole entry): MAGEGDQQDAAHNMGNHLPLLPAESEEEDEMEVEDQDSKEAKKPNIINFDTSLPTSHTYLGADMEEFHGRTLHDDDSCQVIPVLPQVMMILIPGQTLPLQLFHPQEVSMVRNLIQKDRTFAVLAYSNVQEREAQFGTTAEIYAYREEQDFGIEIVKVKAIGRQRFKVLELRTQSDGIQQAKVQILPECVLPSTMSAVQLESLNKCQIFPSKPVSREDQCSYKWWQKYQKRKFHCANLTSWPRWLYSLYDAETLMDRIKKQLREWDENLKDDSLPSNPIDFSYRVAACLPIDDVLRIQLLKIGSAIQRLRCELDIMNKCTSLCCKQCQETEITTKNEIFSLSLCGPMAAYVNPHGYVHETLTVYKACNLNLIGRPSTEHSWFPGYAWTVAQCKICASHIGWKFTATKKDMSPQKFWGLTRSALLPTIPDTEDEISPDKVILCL

For `Cc1sc2c(c1C)C(c1ccc(Cl)cc1)=N[C@@H](CC(=O)NCCOCCOCCOCCn1cc(CCC(=O)N[C@@H](CC(=O)NCCOCCOCCNc3cccc4c3C(=O)N(C3CCC(=O)NC3=O)C4=O)C(=O)NCCOCCOCCNc3cccc4c3C(=O)N(C3CCC(=O)NC3=O)C4=O)nn1)c1nnc(C)n1-2` (stereo partly drawn) [1J2P], the “CRBN level (homo-degradation)” value [1] was “did not induce any significant decrease of CRBN”.
For `Cc1ncsc1-c1ccc(C(C)NC(=O)C2CC(O)CN2C(=O)C(NC(=O)COCCOCCNC(=O)CC(NC(=O)CCc2cn(CCOCCOCCOCCNC(=O)CC3N=C(c4ccc(Cl)cc4)c4c(sc(C)c4C)-n4c(C)nnc43)nn2)C(=O)NCCOCCOCC(=O)NC(C(=O)N2CC(O)CC2C(=O)NC(C)c2ccc(-c3scnc3C)cc2)C(C)(C)C)C(C)(C)C)cc1` (stereo not drawn) [1J2V], the VHL homo-degradation [2] was “did induce homo-degradation of VHL”.
For `Cc1sc2c(c1C)C(c1ccc(Cl)cc1)=N[C@@H](CC(=O)NCCOCCOCCNC(=O)C[C@H](NC(=O)COCCOCCOCCOCCn1cc(CNc3cccc4c3C(=O)N(C3CCC(=O)NC3=O)C4=O)nn1)C(=O)NCCOCCOCCNC(=O)C[C@@H]1N=C(c3ccc(Cl)cc3)c3c(sc(C)c3C)-n3c(C)nnc31)c1nnc(C)n1-2` (stereo partly drawn) [2J1P], the “protein degradation potency, controls with similar linker length” value [3] was “could still potently degrade the BRD proteins” and the “metabolic inhibition, comparison” value [4] was “higher metabolic inhibition compared to single-ligand PROTACs”.
In the case of `Cc1ncsc1-c1ccc(C(C)NC(=O)C2CC(O)CN2C(=O)C(NC(=O)CCc2cn(CCOCCOCCOCCOCC(=O)NC(CC(=O)NCCOCCOCCNC(=O)CC3N=C(c4ccc(Cl)cc4)c4c(sc(C)c4C)-n4c(C)nnc43)C(=O)NCCOCCOCCNC(=O)CC3N=C(c4ccc(Cl)cc4)c4c(sc(C)c4C)-n4c(C)nnc43)nn2)C(C)(C)C)cc1` (stereo not drawn) [2J1V], the “protein degradation potency, controls with similar linker length” value [3] is reported as “could still potently degrade the BRD proteins” and the “metabolic inhibition, comparison” value [4] is reported as “higher metabolic inhibition compared to single-ligand PROTACs”.
In the case of `C#CCCC(=O)N[C@@H](CC(=O)NCCOCCOCCNc1cccc2c1C(=O)N(C1CCC(=O)NC1=O)C2=O)C(=O)NCCOCCOCCNc1cccc2c1C(=O)N(C1CCC(=O)NC1=O)C2=O` (stereo partly drawn) [2P-alkyne], the “CRBN level (homo-degradation)” value [1] is reported as “did not induce any degradation of CRBN”.
For `Cc1sc2c(c1C)C(c1ccc(Cl)cc1)=NC(CC(=O)NCCCCNC(=O)COc1cccc3c1C(=O)N(C1CCC(=O)NC1=O)C3=O)c1nnc(C)n1-2` (stereo not drawn) [dBET1], the EC50 [5] was 2000 nM, the EC50 [6] was 7000 nM and the EC50 [7] was > 10000 nM. For the same molecule, the membrane permeability [8] was “very limited membrane permeability” and the EC50 [9] was 900 nM.
